Assays:
Experiment in all cases: Preemergent activity
Type in all cases: in vivo
Barnyard Grass = details: Echinochloa crus-galli, pre-emergence, read-out: Preemergence Control; for pest or weed control at 70 g/ha: 0.07 kgs/hectare; for pest or weed control at 140 g/ha: 0.14 kgs/hectare; for pest or weed control at 280 g/ha: 0.28 kgs/hectare; for pest or weed control at 560 g/ha: 0.56 kgs/hectare; for pest or weed control at 1120 g/ha: 1.12 kgs/hectare
Protocol: (§1) In a representative operation, 2-[4-(2-fluoro-4-trifluoromethylphenoxy)phenoxy]propionic acid methyl ester, to be utilized in a series of tests, is dissolved in acetone to one half of the final volume (twice the final concentration) to be used and the acetone solution in each case is admixed with an equal volume of water containing 0.1 percent by weight of Tween-20 surface active material (Tween-20 is a trademark of Atlas Chemical Company). The composition, generally in the nature of an emulsion, was employed to treat separate respective seed beds of sandy loam soil of good nutrient content wherein each seed bed contained separate groups of good viable seeds, each group being of one of a known plant species. The various beds were positioned side by side and exposed to substantially identical conditions of temperature and light. Each bed was maintained so as to prevent any interaction with the test compound in different seed beds. Each seed bed was treated with the composition as a spray employing conventional spraying equipment to deposit a predetermined amount of the compound uniformly throughout the surface of the bed. Another seed bed was treated only with the acetone-Tween-20 water mixture with no chemical added to serve as a control.

Johnson Grass = details: Sorghum halepense, pre-emergence, read-out: Preemergence Control; for pest or weed control at 70 g/ha: 0.07 kgs/hectare; for pest or weed control at 140 g/ha: 0.14 kgs/hectare; for pest or weed control at 280 g/ha: 0.28 kgs/hectare; for pest or weed control at 560 g/ha: 0.56 kgs/hectare; for pest or weed control at 1120 g/ha: 1.12 kgs/hectare
Protocol: as §1

Wheat = details: Triticum aestivum, pre-emergence, read-out: Preemergence Control; for plant injury at 70 g/ha: 0.07 kgs/hectare; for plant injury at 140 g/ha: 0.14 kgs/hectare; for plant injury at 280 g/ha: 0.28 kgs/hectare; for plant injury at 560 g/ha: 0.56 kgs/hectare; for plant injury at 1120 g/ha: 1.12 kgs/hectare
Protocol: as §1

Wild Oats = details: Avena fatua, pre-emergence, read-out: Preemergence Control; for pest or weed control at 70 g/ha: 0.07 kgs/hectare; for pest or weed control at 140 g/ha: 0.14 kgs/hectare; for pest or weed control at 280 g/ha: 0.28 kgs/hectare; for pest or weed control at 560 g/ha: 0.56 kgs/hectare; for pest or weed control at 1120 g/ha: 1.12 kgs/hectare
Protocol: as §1

Yellow Foxtail = details: Setaria, pre-emergence, read-out: Preemergence Control; for pest or weed control at 70 g/ha: 0.07 kgs/hectare; for pest or weed control at 140 g/ha: 0.14 kgs/hectare; for pest or weed control at 280 g/ha: 0.28 kgs/hectare; for pest or weed control at 560 g/ha: 0.56 kgs/hectare; for pest or weed control at 1120 g/ha: 1.12 kgs/hectare
Protocol: as §1

| SMILES | pest or weed control at 70 g/ha (Barnyard Grass) [%] | pest or weed control at 140 g/ha (Barnyard Grass) [%] | pest or weed control at 280 g/ha (Barnyard Grass) [%] | pest or weed control at 560 g/ha (Barnyard Grass) [%] | pest or weed control at 1120 g/ha (Barnyard Grass) [%] | pest or weed control at 70 g/ha (Johnson Grass) [%] | pest or weed control at 140 g/ha (Johnson Grass) [%] | pest or weed control at 280 g/ha (Johnson Grass) [%] | pest or weed control at 560 g/ha (Johnson Grass) [%] | pest or weed control at 1120 g/ha (Johnson Grass) [%] | plant injury at 70 g/ha (Wheat) [%] | plant injury at 140 g/ha (Wheat) [%] | plant injury at 280 g/ha (Wheat) [%] | plant injury at 560 g/ha (Wheat) [%] | plant injury at 1120 g/ha (Wheat) [%] | pest or weed control at 70 g/ha (Wild Oats) [%] | pest or weed control at 280 g/ha (Wild Oats) [%] | pest or weed control at 560 g/ha (Wild Oats) [%] | pest or weed control at 1120 g/ha (Wild Oats) [%] | pest or weed control at 70 g/ha (Yellow Foxtail) [%] | further results |
| --- | --- | --- | --- | --- | --- | --- | --- | --- | --- | --- | --- | --- | --- | --- | --- | --- | --- | --- | --- | --- | --- |
| C=CCOC(=O)C(C)Oc1ccc(Oc2ccc(Br)cc2F)cc1 (centres unmarked) [OCH2 CCH2] | 95 | 100 | 100 | 100 | 100 | 0 | 0 | 80 | 90 | 100 | 0 | 0 | 0 | 0 | 70 | 0 | 40 | 70 | 70 | 30 | pest or weed control at 140 g/ha (Wild Oats): 0%; pest or weed control at 140 g/ha (Yellow Foxtail): 30%; pest or weed control at 280 g/ha (Yellow Foxtail): 90%; pest or weed control at 560 g/ha (Yellow Foxtail): 100%; pest or weed control at 1120 g/ha (Yellow Foxtail): 100% |
| C#CCOC(=O)C(C)Oc1ccc(Oc2ccc(Br)cc2F)cc1 (centres unmarked) [OCH2CCH] | 0 | 20 | 100 | 100 | 100 | 0 | 20 | 50 | 100 | 100 | 0 | 0 | 0 | 0 | 0 | 0 | 50 | 50 | 70 | 0 | pest or weed control at 140 g/ha (Yellow Foxtail): 60%; pest or weed control at 280 g/ha (Yellow Foxtail): 95%; pest or weed control at 560 g/ha (Yellow Foxtail): 100%; pest or weed control at 1120 g/ha (Yellow Foxtail): 100% |
| CC(Oc1ccc(Oc2ccc(Br)cc2F)cc1)C(=O)O (centres unmarked) [OH, 2-(4-(4-Bromo-2-fluorophenoxy)phenoxy)propionic acid] | 50 | 95 | 100 | 100 | 100 | 0 | 60 | 80 | 100 | 100 | 0 | 0 | 0 | 0 | 30 | 0 | 90 | 95 | 100 | 0 | pest or weed control at 140 g/ha (Wild Oats): 100%; pest or weed control at 140 g/ha (Yellow Foxtail): 0%; pest or weed control at 280 g/ha (Yellow Foxtail): 90%; pest or weed control at 560 g/ha (Yellow Foxtail): 100%; pest or weed control at 1120 g/ha (Yellow Foxtail): 100% |
